One assay has as its system Human eosinophils. Description: Human eosinophil chemotaxis. To be noted: compound concentration not given. Type of assay: cell-based. The protocol:
Human Eosinophil Chemotaxis
Human eosinophils were isolated from EDTA anticoagulated peripheral blood as previously described (Hansel et al., J. Immunol. Methods, 1991, 145, 105-110). The cells were resuspended at 10×10^6 ml^−1 in RPMI containing 200 IU/ml penicillin, 200 μg/ml streptomycin sulphate and supplemented with 10% HIFCS, at room temperature.
Eosinophils (700 μl) were pre-incubated for 15 mins at 37° C. with 7 μl of either vehicle or compound (100× required final concentration in 10% DMSO). The chemotaxis plate (ChemoTx, 3 μm pore, Neuroprobe) was loaded by adding 28 μl of a concentration of eotaxin (0.1 to 100 nM) containing a concentration of a compound according to the Examples or solvent to the lower wells of the chemotaxis plate. The filter was then placed over the wells and 25 μl of eosinophil suspension were added to the top of the filter. The plate was incubated for 1 hr at 37° C. in a humidified incubator with a 95% air/5% CO2 atmosphere to allow chemotaxis.
The medium, containing cells that had not migrated, was carefully aspirated from above the filter and discarded. The filter was washed once with phosphate buffered saline (PBS) containing 5 mM EDTA to remove any adherent cells. […] The number of eosinophils migrating was quantified according to the method of Strath et al., J. Immunol. […]

The target of another assay is T1, human H1 receptor (Homo sapiens, UniProt P35367).
T1 construct: purchased Euroscreen SA, Brussels, Belgium ES-390-M; host or cells: recombinant CHO-1 cells (membranes)
T1 sequence (P35367 whole entry): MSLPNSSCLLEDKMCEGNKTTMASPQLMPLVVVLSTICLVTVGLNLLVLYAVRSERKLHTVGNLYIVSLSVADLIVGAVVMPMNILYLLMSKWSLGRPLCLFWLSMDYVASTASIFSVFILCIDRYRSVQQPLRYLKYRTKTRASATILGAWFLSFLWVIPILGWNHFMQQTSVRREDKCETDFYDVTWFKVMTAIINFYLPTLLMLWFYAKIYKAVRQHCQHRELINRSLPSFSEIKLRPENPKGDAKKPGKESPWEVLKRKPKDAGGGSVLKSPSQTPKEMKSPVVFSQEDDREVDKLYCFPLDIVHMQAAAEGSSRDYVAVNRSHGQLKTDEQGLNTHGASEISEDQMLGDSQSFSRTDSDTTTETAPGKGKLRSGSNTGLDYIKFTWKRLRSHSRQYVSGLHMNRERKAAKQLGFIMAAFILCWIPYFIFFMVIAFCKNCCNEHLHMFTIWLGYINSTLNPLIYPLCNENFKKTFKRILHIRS
Description: Histamine H1 receptor binding, [3H]-pyrilamine displacement. To be noted: 1 nM [3H]-pyrilamine; membranes of recombinant CHO-1 cells expressing human H1 receptor; read-out: H1 antagonism pKi (converted).

This is an account of results in patent publication US7517989B2, “Piperidine derivatives useful as modulators of chemokine receptor activity” (AstraZeneca AB, priority 2002, dated 2009).

Regarding `O=C(O)C(c1ccccc1)N1CCCC(CN2CCC(Oc3ccc(Cl)c(Cl)c3)CC2)C1` (single isomer, unassigned) [Example 5, 3-[[4-(3,4-dichlorophenoxy)-1-piperidinyl]methyl]-alpha-phenyl-1-piperidineacetic acid], the “% Inhibition (3 nM Human Eotaxin)” value in the assay with Human eosinophils turned out to be 96.9%. For `O=C(O)c1ccccc1CN1CCO[C@H](CN2CCC(Oc3ccc(Cl)c(Cl)c3)CC2)C1` [Example 13, 2-[[(2R)-2-[[4-(3,4-dichlorophenoxy)-1-piperidinyl]methyl]-4-morpholinyl]methyl]-benzoic acid], at human H1 receptor, the Ki was 31.6 nM. On the same count and under the same terms, the result for `Cc1cc(Cl)ccc1OC1CCN(CC2CN(C(C(=O)O)c3ccccc3)CCO2)CC1` (single isomer, unassigned) [Example 8] reads 126 nM. On to `O=C(O)[C@@H](c1ccccc1)N1CCO[C@H](CN2CCC(Oc3ccc(Cl)c(Cl)c3)CC2)C1` [Example 2, (α^4R,2R)-2-[[4-(3,4-dichlorophenoxy)-1-piperidinyl]methyl]-α-phenylmorpholineacetic acid], for which, in the assay with Human eosinophils, the “% Inhibition (3 nM Human Eotaxin)” value is reported as 96.4%. On to `Cc1c(Cl)ccc(OC2CCN(CC3CN(C(C(=O)O)c4ccccc4)CCO3)CC2)c1Cl` (single isomer, unassigned) [Example 12], for which the Ki on human H1 receptor is 31.6 nM. Still for that read-out and setting: the result for `Cc1c(Cl)ccc(OC2CCN(CC3CN(C(C(=O)O)c4ccccc4)CCO3)CC2)c1Cl` (single isomer, unassigned) [Example 9] reads 316 nM; that for `O=C(O)c1ccccc1N1CCO[C@H](CN2CCC(Oc3ccc(Cl)c(Cl)c3)CC2)C1` [Example 15, 2-[(2R)-2-[[4-(3,4-dichlorophenoxy)-1-piperidinyl]methyl]-4-morpholinyl]-benzoic acid], 25.1 nM. In the case of `Cc1c(Cl)ccc(OC2CCN(CC3CN(C(C(=O)O)c4ccccc4)CCO3)CC2)c1Cl` (single isomer, unassigned) [Example 11], on human H1 receptor, the Ki was 251 nM. Consider `Cc1c(Cl)ccc(OC2CCN(CC3CN(C(C(=O)O)c4ccccc4)CCO3)CC2)c1Cl` (single isomer, unassigned) [Example 10], for which the Ki on human H1 receptor was 794 nM. The same measure, in the same setting: the result for `Cc1cc(Cl)ccc1OC1CCN(CC2CN(C(C(=O)O)c3ccccc3)CCO2)CC1` (single isomer, unassigned) [Example 7] reads 631 nM.
